In patent publication US7671258B2, “Surfactant peptide nanostructures, and uses thereof” (Massachusetts Institute of Technology, priority 2001, dated 2010):
Residues, ends and D or L forms follow the SMILES beside them.

Assay: Cryo-transmission electron microscopy of aqueous peptide solutions (self-assembly)
Assay type: physicochemical
Conditions: Cryo-TEM, aqueous solution 5 mg/ml, pH 7
Experimental: Cryo-transmission electron microscopy experiments were performed on aqueous solution of the different peptides at a concentration of 5 mg/ml. In order to solubilize these peptides in water, it was necessary to deprotonate the carboxylic groups by adjusting the pH with a solution of sodium hydroxide 0.1N. The oligopeptides investigated start to be soluble in water at pH 5 to 6, depending on the amino acid sequence. All the experiments presented in this work were carried out using peptide solutions at pH 7. […] The cylindrical assemblers present a three-dimensional transient network somehow similar to flexible polymers in their semidilute or concentrated solutions^22. It should be pointed out that, in the electron micrographs, only a two-dimensional projection of the peptides nanotubes could be imaged. The network below and above a defined point in the space could be relatively distant in three dimensions, while appearing superimposed in the two-dimensional projection. […] These self-assemblies have high axial ratios and extend in length to several tens of micrometers. Additionally, one can easily identify many three-fold junctions or branchings connecting the nanotubes and thus forming the final network. […] Alternatively, two nanotubes could fuse together to form a tentative 4-arm branch. It has been shown that this kind of branching is energetically unstable and, thus, those observed in FIG. 3 are most likely due to the 2-D representation of a spatial network.
In fact, one can easily recognize nanotubes of about 50 nm diameter linked by an increased numbers of three-fold junction. As a result, the branches are more abundant than those observed in the samples VVVVVVD (V6D) (SEQ ID NO: 36), […] (SEQ ID NO: 38) and AAAAAAD (A6D) (SEQ ID NO: 37). They have also a smaller axial ratio and a much smaller average diameter of about 10 to 15 nm. […] (SEQ ID NO: 39) is the most hydrophobic compound with the tail constituted of six leucines. […] These molecular assemblies are very similar to threadlike micellar systems made from traditional amphiphilic molecules such as cetyltrimethylammonium bromide (CTAB)^29-30. It should be noted that a large number of vesicle-like spherical assemblies also appear in the TEM micrograph.
Cryo-TEM micrograph at high resolution provides a detailed structure of the peptide nanotubes formed by AAAAAAD (SEQ ID NO: 35) (see FIG. 4). […] Additionally, helical pitches between 150 and 200 nm, depending on the nanotubes diameter, were also observed. Similar results have been documented with hollow cylinders formed of bilayer membrane of diacetylenic lipids^31. Theories based on molecular chirality have been developed to explain the presence of helical markings that wind around the cylinders^32.

SMILES	nanotube diameter	morphology of the self-assemblies	morphology of the self-assemblies (listed as AAAAAAD)
CC(=O)N[C@@H](C)C(=O)N[C@@H](C)C(=O)N[C@@H](C)C(=O)N[C@@H](C)C(=O)N[C@@H](C)C(=O)N[C@@H](C)C(=O)N[C@@H](CC(=O)O)C(=O)N[C@@H](CC(=O)O)C(=O)O [A6D2, [Acetyl]-AAAAAADD-CO2] (Ac-AAAAAADD-OH)	about 50 nm		
CC(=O)N[C@@H](C)C(=O)N[C@@H](C)C(=O)N[C@@H](C)C(=O)N[C@@H](C)C(=O)N[C@@H](C)C(=O)N[C@@H](C)C(=O)N[C@@H](CC(=O)O)C(=O)O [A6D, [Acetyl]-AAAAAAD-CO2] (Ac-AAAAAAD-OH)		cylindrical morphologies	hollow tubular structures
CC(=O)N[C@@H](CC(C)C)C(=O)N[C@@H](CC(C)C)C(=O)N[C@@H](CC(C)C)C(=O)N[C@@H](CC(C)C)C(=O)N[C@@H](CC(C)C)C(=O)N[C@@H](CC(C)C)C(=O)N[C@@H](CC(=O)O)C(=O)N[C@@H](CC(=O)O)C(=O)O [L6D2, [Acetyl]-LLLLLLDD-CO2] (Ac-LLLLLLDD-OH)		does not exhibit any nanotubular structures but rather a network of entangled rodlike micelles	
CC(=O)N[C@H](C(=O)N[C@H](C(=O)N[C@H](C(=O)N[C@H](C(=O)N[C@H](C(=O)N[C@H](C(=O)N[C@@H](CC(=O)O)C(=O)N[C@@H](CC(=O)O)C(=O)O)C(C)C)C(C)C)C(C)C)C(C)C)C(C)C)C(C)C [V6D2, [Acetyl]-VVVVVVDD-CO2] (Ac-VVVVVVDD-OH)		cylindrical morphologies	
CC(=O)N[C@H](C(=O)N[C@H](C(=O)N[C@H](C(=O)N[C@H](C(=O)N[C@H](C(=O)N[C@H](C(=O)N[C@@H](CC(=O)O)C(=O)O)C(C)C)C(C)C)C(C)C)C(C)C)C(C)C)C(C)C [V6D, [Acetyl]-VVVVVVD-CO2] (Ac-VVVVVVD-OH)		cylindrical morphologies	
